From patent US20070264247A1, “Use of Human Lysozyme in Preparation of Medicine for Treating Acne” (priority 2004, published 2007)
Converted amounts (≈) assume the structure as drawn. Where two headings read alike, the source gives them in different places.

Experiments:
Assay in all cases: MIC by double agar dilution method, clinical isolates
Format in all cases: cell-based
[1] = test system: Klebsiella pneumoniae
Description: (§1) Strain: Pathogenic bacteria isolated from clinical laboratory collected from Sichuan, Beijing, 2002.4˜2003.9, assessed using the method of API in our laboratory.
(§2) Test the minimum inhibitory concentration (MIC) of the tested drug against the strains using the double agar dilution method. The tested drug was dissolved in sterile purified water and diluted properly. The drug-containing petri dishes were prepared by spiking 1 ml drug conclusion with melted 9 ml Tris —HCl agarose solid medium, using agar twofold dilution method and obtained the concentration of 4, 2, 1, 0.5, 0.25, 0.125, 0.06, 0.03 . . . 0.001 mg/ml. The strain solution of 10^5 CFU/ml was inoculated on the petri dishes using the multipoint inoculator, cultured for 8-10 h at 37° C., covered the petri dishes using melted 6 ml M-H Medium (50° C.) respectively, cultured for 10 h at 37° C. The minimal concentration of the drug-containing petri dishes which had no bacterium growth was the minimal inhibitory concentration (MIC).

[2] = test system: Escherichia coli
Description: as §1, §2

[3] = test system: Staphylococcu epidermidis
Description: as §1, §2

[4] = test system: Staphylococcus aureus
Description: as §1, §2

[5] = test system: Serratia marcescens
Description: as §1, §2

[6] = test system: Propionibacterium
Description: as §1, §2

Question: What does the source list for `CC[C@H]1OC(=O)[C@H](C)[C@@H](O[C@H]2C[C@@](C)(OC)[C@@H](O)[C@H](C)O2)[C@H](C)[C@@H](O[C@@H]2O[C@H](C)C[C@H](N(C)C)[C@H]2O)[C@](C)(O)C[C@@H](C)/C(=N\OCOCCOC)[C@H](C)[C@@H](O)[C@]1(C)O` [ROX, Roxithromycin]?
Answer: MIC ([1]; Klebsiella pneumoniae 02-6-14): > 1000 µg/mL; MIC ([1]; Klebsiella pneumoniae 02-6-18): 1000 µg/mL (≈ 1190 µM); MIC ([2]; Escherichia coli 03-2-41, read-out: MIC): > 1000 µg/mL; MIC ([2]; Escherichia coli 03-2-42, read-out: MIC): > 1000 µg/mL; MIC ([2]; Escherichia coli 03-2-43, read-out: MIC): 250 µg/mL (≈ 299 µM); MIC ([2]; Escherichia coli 03-2-45, read-out: MIC): 500 µg/mL (≈ 597 µM); MIC ([2]; Escherichia coli 03-2-51, read-out: MIC): > 1000 µg/mL; MIC ([2]; Escherichia coli 03-2-52, read-out: MIC): 250 µg/mL (≈ 299 µM); MIC ([2]; Escherichia coli 03-2-53, read-out: MIC): 250 µg/mL (≈ 299 µM); MIC ([2]; Escherichia coli 03-2-54, read-out: MIC): 1000 µg/mL (≈ 1190 µM); MIC ([2]; Escherichia coli 03-2-56, read-out: MIC): 250 µg/mL (≈ 299 µM); MIC ([2]; Escherichia coli 03-2-57, read-out: MIC): 250 µg/mL (≈ 299 µM); MIC ([2]; Escherichia coli 03-2-58, read-out: MIC): 500 µg/mL (≈ 597 µM); MIC ([2]; Escherichia coli 03-2-59, read-out: MIC): 250 µg/mL (≈ 299 µM); MIC ([3]; Staphylococcu epidermidis MRSE02-3): > 1000 µg/mL; MIC ([3]; Staphylococcu epidermidis MRSE02-4): > 1000 µg/mL; MIC ([3]; Staphylococcu epidermidis MRSE02-5): < 1 µg/mL; MIC ([3]; Staphylococcu epidermidis MRSE02-6): < 1 µg/mL; MIC ([3]; Staphylococcu epidermidis MRSE02-10): 1000 µg/mL (≈ 1190 µM); MIC ([3]; Staphylococcu epidermidis MRSE02-11): < 1 µg/mL; MIC ([3]; Staphylococcu epidermidis MRSE02-12): 125 µg/mL (≈ 149 µM); MIC ([3]; Staphylococcu epidermidis MRSE02-15): > 1000 µg/mL; MIC ([3]; Staphylococcu epidermidis MRSE02-17): > 1000 µg/mL; MIC ([3]; Staphylococcu epidermidis MRSE02-18): < 1 µg/mL; MIC ([3]; Staphylococcu epidermidis MRSE02-20): > 1000 µg/mL; MIC ([3]; Staphylococcu epidermidis MRSE02-20-1): < 1 µg/mL; MIC ([3]; Staphylococcu epidermidis MRSE02-20-2): > 1000 µg/mL; MIC ([3]; Staphylococcu epidermidis MRSE02-20-3): > 1000 µg/mL; MIC ([3]; Staphylococcu epidermidis MRSE02-20-4): > 1000 µg/mL; MIC ([3]; Staphylococcu epidermidis MRSE02-20-5): > 1000 µg/mL; MIC ([3]; Staphylococcu epidermidis MRSE02-20-6): > 1000 µg/mL; MIC ([3]; Staphylococcu epidermidis MRSE02-20-7): 1000 µg/mL (≈ 1190 µM); MIC ([3]; Staphylococcu epidermidis MRSE02-20-8): < 1 µg/mL; MIC ([3]; Staphylococcu epidermidis MRSE02-20-9): < 1 µg/mL; MIC ([3]; Staphylococcu epidermidis MRSE02-21): < 1 µg/mL; MIC ([3]; Staphylococcu epidermidis MRSE02-22): < 1 µg/mL; MIC ([3]; Staphylococcu epidermidis MRSE02-29): 500 µg/mL (≈ 597 µM); MIC ([3]; Staphylococcu epidermidis MssE25): < 1 µg/mL; MIC ([4]; Staphylococcus aureus 02-19-5): >1000 µg/mL; MIC ([4]; Staphylococcus aureus MRSA02-22, read-out: MIC): > 1000 µg/mL; MIC ([4]; Staphylococcus aureus MRSA02-23): >1000 µg/mL; MIC ([4]; Staphylococcus aureus MRSA02-26): >1000 µg/mL; MIC ([4]; Staphylococcus aureus MRSA02-28): >1000 µg/mL; MIC ([5]; Serratia marcescens 2-31-8 (first line)): 16 µg/mL (≈ 19.1 µM); MIC ([5]; Serratia marcescens 2-31-8 (second line)): 16 µg/mL (≈ 19.1 µM); MIC ([5]; Serratia marcescens 2-31-8 (third line)): 16 µg/mL (≈ 19.1 µM); MIC ([6]; Propionibacterium 02-7-4): 2 µg/mL (≈ 2.39 µM); MIC ([6]; Propionibacterium 02-7-5): < 1 µg/mL; MIC ([6]; Propionibacterium 02-7-6): 250 µg/mL (≈ 299 µM); MIC ([6]; Propionibacterium 02-7-7): 250 µg/mL (≈ 299 µM); MIC ([6]; Propionibacterium 02-7-9): 16 µg/mL (≈ 19.1 µM); MIC ([6]; Propionibacterium 03-2-22): 1000 µg/mL (≈ 1190 µM); MIC ([6]; Propionibacterium 03-2-30): > 1000 µg/mL; MIC ([6]; Propionibacterium 03-2-32): 500 µg/mL (≈ 597 µM); MIC ([6]; Propionibacterium 03-2-33): > 1000 µg/mL; MIC ([6]; Propionibacterium 03-2-36): 500 µg/mL (≈ 597 µM); MIC ([6]; Propionibacterium 03-2-37): 1000 µg/mL (≈ 1190 µM); MIC ([6]; Propionibacterium 03-2-39): 1000 µg/mL (≈ 1190 µM)
